Measured values from patent US11419806B2, “Prebiotic oral care methods using a saccharide” (Colgate-Palmolive Company, priority 2013, dated 2022).

Assays:
[1] = tested on: beneficial oral bacteria and pathogenic oral bacteria; experiment: Twenty-four hour biofilm growth, overall prebiotic assessment; type: cell-based
Excerpt: Substrates that were able to increase the biofilm mass of at least one of the above beneficial bacteria while not or only minimally increasing the biofilm mass of the pathogenic bacteria are considered to be prebiotic compounds.
The increase in biofilm formation of the tested bacteria in response to selected saccharides (D-turanose, D-lactitol, myo-inositol, and N-acetyl-D-mannosamine) was investigated by setting up biofilm growth assays in a nutritionally rich medium (brain heart infusion broth (BHI), Oxoid), over 24 hours. Late exponential growth phase liquid cultures were prepared by transferring the respective bacterium from blood agar plates to BHI and overnight incubation at 37° C. in an anaerobic atmosphere for A. viscosus, V. parvula, P. gingivalis, P. intermedia, T. forsythia, A. naeslundii, and C. sputigena, and in a 5% CO2 environment for S. salivarius, S. sanguinis, S. mitis, A. actinomycetemcomitans, S. mutans, and S. gordonii. Overnight cultures were transferred to BHI and adjusted to a concentration of 1×10^7 CFU/ml by measuring the optical density at 600 nm (OD600) (BioRad SmartSpec 3000). For each strain, 200 μl of the bacterial suspension was added to a 96-well plate containing 20 μl of the respective saccharides. Final concentrations of the saccharides were set to 5, 10, 20 and 25 μmol/ml. […] Additionally, for each bacterium tested, a background control, to correct for background staining, was added. This background control contained the bacterium tested and 0.03 weight % chlorhexidine, as an antiseptic. Plates were incubated as previously described. After 24 hrs the supernatant was removed from the wells of the plates. The wells were washed twice with 1×100 μL PBS (phosphate buffered saline), fixed for 20 minutes with 96% vol. ethanol (96% vol. solution in water) and the biofilm retained at the bottom of the wells was stained with 1 weight % crystal violet (1 weight % solution in water). The bound dye was dissolved with 5% vol. acetic acid (5% vol. solution in water). Quantification of the stained biofilm was performed by measuring the absorbance at 630 nm using a Multiskan Ascent microplate reader (Thermo Scientific).
The experiment was carried out on three different days (thus providing 3 biological replicas) and each day the experiment was carried out in quadruple (thus providing 4 technical replicas) for each combination of bacterium with saccharide and for each control. For each day and for each combination, the average (mean) of the values obtained (as detailed above) for the four technical replicas was calculated to provide a single value for each combination on each day. The values shown in Tables 7a, 7b, 8a, 8b, below, are the average (mean) of the three single values obtained for each combination of bacterium with saccharide. […]

[2] = tested on: beneficial oral bacteria and pathogenic oral bacteria; experiment: Microarray screen, overall prebiotic assessment; type: cell-based
Procedure: Substrates that were able to increase the metabolic activity of at least one of the above beneficial bacteria while not or only minimally increasing the growth of the pathogenic bacteria are considered to be prebiotic substrates.
The extent of metabolic activity of the tested bacteria in the presence of the above-mentioned saccharides after 24 hours and 48 hours was investigated through a high throughput phenotype microarray system (PM) for microbial cells (Biolog Inc.). Each PM can contain up to 95 different biochemical compounds (e.g. saccharides) that may act as substrates for bacteria as well as one negative control, not containing the substrates. Microarray plates were used in which the different wells of each plate were pre-loaded (by the manufacturer, Biolog Inc.) with different saccharides to be tested. Each bacterial species was tested using a separate microarray plate. Thus, a single bacterial species was tested with a variety of saccharides on each particular plate. The microarrays are based on redox technology, using cell respiration as a universal reporter. Active cell respiration results in the reduction of a tetrazolium dye and in the formation of a strong color—for example, when using the tetrazolium dye “Biolog Redox Dye Mix D”, the color changes from transparent/colorless to purple when the dye is reduced. The observation of this color change indicates which of the substrates improve the metabolic activity and health of the cells.
Each bacterial species was collected from blood agar plates (incubated for 48 hours anaerobically at 37° C.) and transferred to an IF-0 Base inoculation fluid (Biolog Inc.), which is a nutritionally poor medium. The resulting cell suspension was adjusted to a transmittance of 42% (relative to the transmittance of the base inoculation fluid with no bacterial species present) at 492 nm using a BioRad SmartSpec 3000 Photometer (the adjustment being effected by adding either further inoculation fluid or further bacteria until the transmittance of 42% was achieved). A 1:5 dilution of this suspension was prepared by mixing 3 mL of the 42% transmittance cell suspension with 15 mL of an inoculation fluid (which inoculation fluid was formed by mixing 11.6 mL sterile water, 62.5 mL IF-0 base inoculation fluid and 0.9 mL of the tetrazolium dye “Biolog Redox Dye mix D”), resulting in a final cell density which was equal to 85% transmittance using a BioRad SmartSpec 3000 Photometer. For each of the saccharides tested, the microarray plate (obtained from the supplier (Biolog Inc.) with saccharides already present in the relevant wells in powder form) was directly inoculated with 100 μL/well of this 85% transmittance cell suspension.
All plates were incubated in an anaerobic atmosphere at 37° C. Color changes were measured spectrophotometrically at 492 nm (Thermo Scientific Multiskan Ascent) at 24 hrs and 48 hrs using the same plate at both time points. […] After 24 hrs and 48 hrs under continuous shaking in a Multiscan microplate reader, the optical density (OD) of the synthetic medium at 24 hours and 48 hours was measured (using the microplate reader) at a wavelength of 492 nm for each combination of bacterium/saccharide, and for each of their respective controls (i.e. which contained the particular bacterium but no saccharide).
The experiment was carried out three times for each combination of bacterium with saccharide, with each repeat being carried out on a different day (thus providing three biological replicas). The controls were also carried out three times, as above. The values shown are the average (mean) of the three single values obtained (as detailed above) for each combination of bacterium with saccharide, at 24 hrs and at 48 hrs.
This value was selected in order to exclude low-stimulating metabolites and avoid false positive results.

[3] = concentrations of 5, 10, 20 and 25 μmol/ml

Compound: OC[C@H]1O[C@@](O)(CO)[C@@H](O[C@H]2O[C@H](CO)[C@@H](O)[C@H](O)[C@H]2O)[C@@H]1O [D-Turanose, α-D-glucopyranosyl-(1→3)-α-D-fructofuranose]
- prebiotic effects (biofilm growth, threshold value 1.6) ([1]; concentrations of 20 and 25 μmol/ml): exhibited prebiotic effects
- prebiotic effects (metabolic activity, threshold value 2) ([2]; 24 hrs): exhibited prebiotic effects
- speed of metabolism by beneficial versus pathogenic bacteria (value of 2 reached at 24 hrs) ([2]; 24 hrs): metabolized faster by the beneficial bacteria than by the pathogenic bacteria

Compound: CC(=O)N[C@H](C=O)[C@@H](O)[C@H](O)[C@H](O)CO [N-acetyl-D-mannosamine, 2-acetamido-2-deoxy-D-mannose]
- prebiotic effects (biofilm growth, threshold value 1.6) [1, 3]: exhibited prebiotic effects
- prebiotic effects (metabolic activity, threshold value 2) ([2]; 24 hrs): exhibited prebiotic effects
- speed of metabolism by beneficial versus pathogenic bacteria (value of 2 reached at 24 hrs) ([2]; 24 hrs): metabolized faster by the beneficial bacteria than by the pathogenic bacteria

Compound: OC[C@@H](O)[C@@H](O[C@H]1O[C@H](CO)[C@H](O)[C@H](O)[C@H]1O)[C@H](O)[C@@H](O)CO [D-Lactitol, 4-O-α-D-galactopyranosyl-D-glucitol]
- prebiotic effects (biofilm growth, threshold value 1.6) [1, 3]: exhibited prebiotic effects
- prebiotic effects (metabolic activity, threshold value 2) ([2]; 24 hrs): exhibited prebiotic effects

Compound: O[C@H]1[C@H](O)[C@@H](O)[C@H](O)[C@@H](O)[C@H]1O [Myo-Inositol, (1R,2R,3S,4S,5R,6S)-cyclohexane-1,2,3,4,5,6-hexol]
- prebiotic effects (biofilm growth, threshold value 1.6) [1, 3]: exhibited prebiotic effects
- prebiotic effects (metabolic activity, threshold value 2) ([2]; 24 hrs): exhibited prebiotic effects
- prebiotic effects (metabolic activity, threshold value 2) ([2]; 48 hrs): exhibited prebiotic effects
